Test results published in patent publication US8278313B2, “Macrocyclic spiro pyrimidine derivatives” (Abbott Laboratories, priority 2008, dated 2012).

What was measured:
histamine H4 receptor [1] = target: T1, histamine H4 receptor (Homo sapiens, UniProt Q9H3N8); test: [3H]-histamine competition binding assay, membranes of HEK-293 cells transiently transfected with histamine H4 receptor; details: Ki by Cheng-Prusoff equation; HEK-293 membranes, 25° C., 1 hour, pH 7.4; read-out: Potency (nM), displacement of 3H-histamine
T1 construct: expressed in transfected cells
Method: In this assay, membranes were prepared from HEK-293 cells transiently transfected with the pCINeo expression vector harboring the histamine H4 receptor by homogenization of the cells on ice in TE buffer (50 mM Tris-HCl buffer, pH 7.4, containing 5 mM EDTA), 1 mM benzamidine, 2 μg/ml aprotinin, […] leupeptin, and 1 μg/ml pepstatin. The homogenate was centrifuged at 40,000 g for 20 minutes at 4° C. This step was repeated, and the resulting pellet was resuspended in TE buffer. Aliquots were frozen at −70° C. until needed. On the day of assay, membranes were thawed and diluted with TE buffer. Competition radioligand binding assays were performed with increasing concentrations of test compound in the presence of [^3H]-histamine incubated at 25° C. for 1 hour in a total volume of 0.5 mL of 50 mM Tris, 5 mM EDTA, pH 7.4. All binding reactions were terminated by filtration under vacuum onto polyethylenimine (0.3%) presoaked Unifilters (PerkinElmer Life Sciences) or Whatman GF/B filters (Whatman, Clifton, N.J.), followed by three brief washes with 4 ml of ice-cold TE buffer. Bound radiolabel was determined by liquid scintillation counting. For all of the radioligand competition binding assays, IC50 values and Hill slopes were determined by Hill transformation of the data, and Ki values were determined by the Cheng-Prusoff equation.

histamine H4 receptor [2] = target: T1, histamine H4 receptor; test: In vitro histamine H4 potency in FLIPR (Ca2+ flux, Fluo-4) in HEK-293 cells coexpressing Gαqi5; assay type: cell-based; details: Kb values for antagonists and inverse agonists, EC50 values for partial agonists; HEK-293 cells with Gαqi5, Fluo-4
Description: There are many methods available to show the effectiveness of compounds as histamine H4 receptor ligands. Histamine H4 receptors from mammalian species have been cloned. Methods to clone, express, and assess the potency and functional activity of such cloned genes are well known to those skilled in the art of molecular biology. […] Before testing, cells are loaded with a Ca^+2 sensitive fluorescent dye, in this case Fluo-4. In the case of partial agonist or agonist ligands, addition of compound to the cells leads to the increase in intracellular Ca^+2, which is detected by FLIPR (Fluorescence Imaging Plate Reader; Molecular Devices, Sunnyvale, Calif.) technology. […] The fluorescence intensities measured before addition of the test compound are subtracted from the fluorescence intensities at later time points. Peak response values determined at each concentration of ligand are expressed as a percentage of the response obtained with the full agonist histamine. Concentration versus response data are analyzed to obtain compound potency as Kb values for antagonists and inverse agonists and as EC50 values for partial agonists.

| SMILES | Ki (histamine H4 receptor [1]) | Potency (nM), in vitro histamine H4 potency in FLIPR (histamine H4 receptor [2]) |
| --- | --- | --- |
| CN[C@@H]1CCN(c2nc(N)nc3c2CCCC32CCCC2)C1 [Example 1, (R)-4′-(3-(methylamino)pyrrolidin-1-yl)-6′,7′-dihydro-5′H-spiro[cyclopentane-1,8′-quinazolin]-2′-amine] | 2.6 nM | 2.9 nM |
| CNC1CN(c2nc(N)nc3c2CCCC32CCCC2)C1 [Example 3, 4′-(3-(methylamino)azetidin-1-yl)-6′,7′-dihydro-5′H-spiro[cyclopentane-1,8′-quinazolin]-2′-amine] | 1.4 nM | 4.6 nM |
| Nc1nc(N2CC[C@@H]3CNC[C@@H]32)c2c(n1)C1(CCCC1)CCC2 [Example 6, 4′-((3aR,6aR)-hexahydropyrrolo[3,4-b]pyrrol-1(2H)-yl)-6′,7′-dihydro-5′H-spiro[cyclopentane-1,8′-quinazolin]-2′-amine] |  | 1097 nM |
| Nc1nc(N2CC[C@H]3CNC[C@H]32)c2c(n1)C1(CCCC1)CCC2 [Example 7, 4′-((3aS,6aS)-hexahydropyrrolo[3,4-b]pyrrol-1(2H)-yl)-6′,7′-dihydro-5′H-spiro[cyclopentane-1,8′-quinazolin]-2′-amine] |  | 1027 nM |
| Nc1nc(N2C[C@H]3CCCN[C@H]3C2)c2c(n1)C1(CCCC1)CCC2 [Example 9, 4′-((4aR,7aR)-tetrahydro-1H-pyrrolo[3,4-b]pyridin-6(2H,7H,7aH)-yl)-6′,7′-dihydro-5′H-spiro[cyclopentane-1,8′-quinazolin]-2′-amine] | 3.4 nM | 8.5 nM |
| CN1CCC(Nc2nc(N)nc3c2CCCC32CCCC2)CC1 [Example 10, N4′-(1-methylpiperidin-4-yl)-6′,7′-dihydro-5′H-spiro[cyclopentane-1,8′-quinazoline]-2′,4′-diamine] |  | 22 nM |
| COC(=O)C1(N)CCN(c2nc(N)nc3c2CCCC32CCCC2)CC1 [Example 11, Methyl 4-amino-1-(2′-amino-6′,7′-dihydro-5′H-spiro[cyclopentane-1,8′-quinazoline]-4′-yl)piperidine-4-carboxylate] |  | 12624 nM |
| CN(C)CCOc1nc(N)nc2c1CCCC21CCCC1 [Example 14, 4′-(2-(dimethylamino)ethoxy)-6′,7′-dihydro-5′H-spiro[cyclopentane-1,8′-quinazolin]-2′-amine] |  | 7.8 nM |
| Nc1nc(N2CCNCC2)c2c(n1)C1(CCCC2)Cc2ccccc2C1 [Example 19, 4-(piperazin-1-yl)-1′,3′,5,6,7,8-hexahydrospiro[cyclohepta[d]pyrimidine-9,2′-inden]-2-amine] |  | 26915 nM |
| Nc1nc(N2CC[C@@H](N)C2)c2c(n1)C1(CCCC2)Cc2ccccc2C1 [Example 20, (R)-4-(3-aminopyrrolidin-1-yl)-1′,3′,5,6,7,8-hexahydrospiro[cyclohepta[d]pyrimidine-9,2′-inden]-2-amine] |  | 499 nM |

Now from value to compound:

| Ki (histamine H4 receptor [1]) | Potency (nM), in vitro histamine H4 potency in FLIPR (histamine H4 receptor [2]) | SMILES |
| --- | --- | --- |
| 1.1 nM | 2.8 nM | Nc1nc(N2CCNCC2)c2c(n1)C1(CCCC1)CCC2 [Example 2, 4′-(piperazin-1-yl)-6′,7′-dihydro-5′H-spiro[cyclopentane-1,8′-quinazolin]-2′-amine] |
| 4.6 nM | 2.7 nM | Nc1nc(N2CC[C@@H](N)C2)c2c(n1)C1(CCCC1)CCC2 [Example 4, (R)-4′-(3-aminopyrrolidin-1-yl)-6′,7′-dihydro-5′H-spiro[cyclopentane-1,8′-quinazolin]-2′-amine] |
|  | 53 nM | Nc1nc(N2CC[C@H](N)C2)c2c(n1)C1(CCCC1)CCC2 [Example 5, (S)-4′-(3-aminopyrrolidin-1-yl)-6′,7′-dihydro-5′H-spiro[cyclopentane-1,8′-quinazolin]-2′-amine] |
| 2.8 nM | 9.8 nM | Nc1nc(N2CCCNCC2)c2c(n1)C1(CCCC1)CCC2 [Example 8, 4′-(1,4-diazepan-1-yl)-6′,7′-dihydro-5′H-spiro[cyclopentane-1,8′-quinazolin]-2′-amine] |
|  | 21251 nM | Nc1nc(N2CCC(N)(C(=O)O)CC2)c2c(n1)C1(CCCC1)CCC2 [Example 12, 4-amino-1-(2′-amino-6′,7′-dihydro-5′H-spiro[cyclopentane-1,8′-quinazoline]-4′-yl)piperidine-4-carboxylic Acid] |
|  | 68851 nM | Nc1nc(N2CC(N)C2)c2c(n1)C1(CCCC1)CCC2 [Example 13, 4′-(3-aminoazetidin-1-yl)-6′,7′-dihydro-5′H-spiro[cyclopentane-1,8′-quinazolin]-2′-amine] |
|  | 20 nM | CN1CC[C@@H](Oc2nc(N)nc3c2CCCC32CCCC2)C1 [Example 15, (R)-4′-(1-methylpyrrolidin-3-yloxy)-6′,7′-dihydro-5′H-spiro[cyclopentane-1,8′-quinazolin]-2′-amine] |
| 9.3 nM | 48 nM | Nc1nc(N2CCNCC2)c2c(n1)C1(CCCCC1)CCCC2 [Example 16, 4-(piperazin-1-yl)-5,6,7,8-tetrahydrospiro[cyclohepta[d]pyrimidine-9,1′-cyclohexan]-2-amine] |
| 18 nM | 47 nM | Nc1nc(N2CC[C@@H](N)C2)c2c(n1)C1(CCCCC1)CCCC2 [Example 17, (R)-4-(3-aminopyrrolidin-1-yl)-5,6,7,8-tetrahydrospiro[cyclohepta[d]pyrimidine-9,1′-cyclohexan]-2-amine] |
|  | 99 nM | Nc1nc(N2C[C@H]3CCCN[C@H]3C2)c2c(n1)C1(CCCCC1)CCCC2 [Example 18, 4-((4aR,7aR)-tetrahydro-1H-pyrrolo[3,4-b]pyridin-6(2H,7H,7aH)-yl)-5,6,7,8-tetrahydrospiro[cyclohepta[d]pyrimidine-9,1′-cyclohexan]-2-amine] |
